PMC9481026 (PLoS ONE, 2022)
Values after ≈ are worked out from the molar mass of the structure shown. Read-outs that look alike come from different tables or passages of the source.

Assays:
RVFV MP-12 = test: microbe, parasite or virus in culture; type: cell-based, Rift Valley fever virus; conditions: read-out: Estimated EC50
C. neoformans = test: microbe, parasite or virus in culture; type: cell-based; conditions: for MIC80: Cryptococcus neoformans, read-out: C. neoformans (MIC80, μM)
Human RNase H1 = molecular target: T1, Human RNase H1 (Homo sapiens, UniProt O60930); test: biochemical
T1 construct: made in house; host or cells: E. coli
T1 sequence (O60930 1-286): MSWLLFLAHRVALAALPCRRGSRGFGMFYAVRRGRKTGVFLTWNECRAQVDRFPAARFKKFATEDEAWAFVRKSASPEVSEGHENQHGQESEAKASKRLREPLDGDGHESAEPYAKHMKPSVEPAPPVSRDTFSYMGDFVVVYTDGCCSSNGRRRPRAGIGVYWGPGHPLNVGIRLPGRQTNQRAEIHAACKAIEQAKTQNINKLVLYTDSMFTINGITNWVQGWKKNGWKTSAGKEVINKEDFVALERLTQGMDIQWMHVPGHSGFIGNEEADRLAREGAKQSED

RVFV strain MP-12 [1] = test: microbe, parasite or virus in culture; type: cell-based, Rift Valley fever virus
Staphylo-coccus spp. = test: organism not typed; type: cell-based
RVFV strain MP-12 [2] = test: microbe, parasite or virus in culture; type: cell-based, Rift Valley fever virus; conditions: read-out: A549 EC50
in vitro = conditions: African green monkey, CC50
ZIKV = test: microbe, parasite or virus in culture; type: cell-based, Zika virus; conditions: read-out: ZIKV EC50
LACV = test: microbe, parasite or virus in culture; type: cell-based, La Crosse virus; conditions: read-out: LACV EC50
[3] = read-out: Human RNase H1 (IC50)
[4] = Rift Valley fever virus, Vero, 24 h

Compound | EC50 (RVFV MP-12) [µM] | CC50 (Vero cells) [µM] | C. neoformans (MIC80, μM) (C. neoformans) [µM] | IC50 (Human RNase H1; [3]) [µM] | further results
O=C(O)CC(=O)CC(=O)c1cccs1 [Compound 129] | > 120 |  |  |  | 
Cc1cc(O)c(=O)c(O)cc1C(=O)N1CCN(C(=O)C2COc3ccccc3O2)CC1 (centres unmarked) [Compound 876] |  | > 120 |  |  | 
Cc1cc(O)c(=O)c(O)cc1C(=O)NCc1ccc(-c2ccccc2)cc1 [Compound 539] | 10 |  | 4.5 | 105 | CC50 (HepDES19): 3.6 µM; EC50 (RVFV strain MP-12 [1]; read-out: EC50): 18.6 µM; Staphylo-coccus spp. (MIC80, μM) (Staphylo-coccus spp.): 38 µM
Cc1cc(O)c(=O)c(O)cc1C(=O)Nc1cccc(Cc2ccccc2)c1 [Compound 799] | 17 | 62 |  |  | 
COc1ccc(Cl)cc1C(=O)Sc1cccccc1=O [Compound 681] | > 2 | 2 |  |  | 
C/C(=N\c1ccc(Cl)c(Cl)c1)c1c(C)cc(O)n(O)c1=O [Compound 670] |  |  |  |  | MIC80 (C. neoformans): 69 µM (≈ 22.6 µg/mL); EC50 (RVFV strain MP-12 [2]; Rift Valley fever virus, A549, 24 h): 15.3 µM; CC50 (Vero cells; African green monkey): > 120 µM; IC50 (Human RNase H1): 356 µM; EC50 (RVFV MP-12; Rift Valley fever virus, Vero): 10 µM; EC50 (RVFV strain MP-12 [1]; [4]): 14 µM; EC50 (RVFV strain MP-12 [1]; Rift Valley fever virus, Vero, read-out: Vero EC50): 14 µM; CC50 (in vitro): > 120 µM; EC50 (ZIKV; Zika virus, Vero C1008, 48 h): > 120 µM; EC50 (LACV; La Crosse virus, Vero C1008, 24 h): > 120 µM
NC(=O)c1c(N)sc2c1CCCCC2 [Compound 22] | > 120 |  |  |  | 
Cc1cc(O)c(=O)c(O)cc1C(=O)Nc1ccc(F)cc1F [Compound 711] | 17 | > 120 |  |  | 
Cc1cc(O)c(=O)c(O)cc1C(=O)Nc1cccc(OCc2ccccc2)c1 [Compound 836] | 13 | > 120 |  |  | 
Cc1cc(O)c(=O)c(O)cc1C(=O)c1ccc(-c2ccncc2)cc1 [Compound 260] |  | > 120 | 50 | 277 | CC50 (HepDES19): 45 µM; EC50 (RVFV strain MP-12 [1]; read-out: RVFV (EC50)): 31.6 µM
Cc1cc(O)c(=O)c(O)cc1C(=O)N1CCSC1 [Compound 712] | > 20 | 20 |  |  | 
Cc1cc(O)c(=O)c(O)cc1C(=O)N1CCN(c2ccc([N+](=O)[O-])c3nonc23)CC1 [Compound 920] | 19 | > 120 |  |  | 
Cc1ccc(O)c(=O)c(O)c1 [Compound 210] | 8 | > 120 | 15 | 85 | EC50 (RVFV strain MP-12 [1]; read-out: EC50): 11.8 µM
Cc1ccc(/C=C/C(=O)c2ccccc(=O)c2O)cc1 [Compound 340] | 3 | 70 | 49 | > 500 | CC50 (HepDES19): 18.7 µM; EC50 (RVFV strain MP-12 [1]; read-out: EC50): 27.3 µM
O=C(/C=C/c1cccc(Br)c1)c1ccccc(=O)c1O [Compound 341] |  |  |  |  | MIC80 (C. neoformans): 24 µM (≈ 7.95 µg/mL); IC50 (Human RNase H1): > 500 µM; EC50 (RVFV MP-12; Rift Valley fever virus, Vero): 2 µM; EC50 (RVFV strain MP-12 [1]; [4]): 25.2 µM; CC50 (in vitro): > 120 µM; MIC80 (Staphylo-coccus spp.; read-out: Staphylo-coccus spp. (MIC80, μM)): 44 µM (≈ 14.6 µg/mL)
CC1=CC(O)N(O)C(O)=C1C(C)=Nc1ccccc1N (centres unmarked) [Compound 208] | 14 | > 120 | 30 | 194 | CC50 (HepDES19): 14.4 µM; EC50 (RVFV strain MP-12 [1]; read-out: RVFV (EC50)): > 120 µM
Cc1cc(O)c(=O)c(O)cc1C(=O)C1CCCCC1 [Compound 120] |  | > 120 | 12 | 81 | EC50 (RVFV strain MP-12 [1]; read-out: RVFV (EC50)): 15.6 µM
Cc1cc(O)c(=O)c(O)cc1-c1cccc(-c2cccc3ccccc23)c1 [Compound 234] | 19 | > 120 |  |  | 
COC(=O)c1c(C)cc(O)c(=O)c(O)c1Br [Compound 335] | 3 | > 120 | 50 | 111 | EC50 (RVFV strain MP-12 [2]): > 120 µM; CC50 (A549 cells): 96.2 µM; EC50 (RVFV strain MP-12 [1]; read-out: EC50): 40.8 µM; EC50 (RVFV strain MP-12 [1]; read-out: RVFV (EC50)): 40.8 µM; EC50 (RVFV strain MP-12 [1]; read-out: Vero EC50): 40.8 µM; EC50 (ZIKV): > 120 µM; EC50 (LACV): > 120 µM
O=c1c(O)ccc(-c2ccco2)cc1O [Compound 265] |  | > 120 | 11 | 57 | EC50 (RVFV strain MP-12 [1]; read-out: RVFV (EC50)): 15.4 µM; Staphylo-coccus spp. (MIC80, μM) (Staphylo-coccus spp.): 30 µM
CCOC(=O)c1sc(NC(=O)CSc2nnc(Cc3ccccc3)o2)c(C#N)c1C [Compound 6] | > 120 |  |  |  | 
Cc1cc(O)c(=O)c(O)cc1C(=O)c1ccc(-c2ccccc2)cc1 [Compound 118] |  | > 120 | 15 | > 500 | EC50 (RVFV strain MP-12 [1]; read-out: RVFV (EC50)): 11 µM
